# Results from PMC3429506, “Screening for Novel LRRK2 Inhibitors Using a High-Throughput TR-FRET Cellular Assay for LRRK2 Ser935 Phosphorylation” (PLoS ONE, 2012).
# Where “and” joins values, the source holds several entries; their conditions need not be identical. Equal values may be shown once. Read-outs that look alike come from different tables or passages of the source.
# How the values were obtained:
# [1] = test system: SH-SY5Y cells expressing LRRK2-GFP G2019S
# LRRK2 G2019S [2] = biological target: T1, LRRK2 G2019S (Homo sapiens, UniProt Q5S007, G2019S); test: In vitro biochemical LRRK2 TR-FRET activity assay; settings: for IC50: LRRK2 G2019S, ATP 134 µM (Km,app), LRRKtide substrate, three independent experiments, read-out: Biochemical LRRK2 assay IC50 +/- SD; for effect on LRRK2 activity in vitro: result in words
# T1 sequence (Q5S007 whole entry G2019S): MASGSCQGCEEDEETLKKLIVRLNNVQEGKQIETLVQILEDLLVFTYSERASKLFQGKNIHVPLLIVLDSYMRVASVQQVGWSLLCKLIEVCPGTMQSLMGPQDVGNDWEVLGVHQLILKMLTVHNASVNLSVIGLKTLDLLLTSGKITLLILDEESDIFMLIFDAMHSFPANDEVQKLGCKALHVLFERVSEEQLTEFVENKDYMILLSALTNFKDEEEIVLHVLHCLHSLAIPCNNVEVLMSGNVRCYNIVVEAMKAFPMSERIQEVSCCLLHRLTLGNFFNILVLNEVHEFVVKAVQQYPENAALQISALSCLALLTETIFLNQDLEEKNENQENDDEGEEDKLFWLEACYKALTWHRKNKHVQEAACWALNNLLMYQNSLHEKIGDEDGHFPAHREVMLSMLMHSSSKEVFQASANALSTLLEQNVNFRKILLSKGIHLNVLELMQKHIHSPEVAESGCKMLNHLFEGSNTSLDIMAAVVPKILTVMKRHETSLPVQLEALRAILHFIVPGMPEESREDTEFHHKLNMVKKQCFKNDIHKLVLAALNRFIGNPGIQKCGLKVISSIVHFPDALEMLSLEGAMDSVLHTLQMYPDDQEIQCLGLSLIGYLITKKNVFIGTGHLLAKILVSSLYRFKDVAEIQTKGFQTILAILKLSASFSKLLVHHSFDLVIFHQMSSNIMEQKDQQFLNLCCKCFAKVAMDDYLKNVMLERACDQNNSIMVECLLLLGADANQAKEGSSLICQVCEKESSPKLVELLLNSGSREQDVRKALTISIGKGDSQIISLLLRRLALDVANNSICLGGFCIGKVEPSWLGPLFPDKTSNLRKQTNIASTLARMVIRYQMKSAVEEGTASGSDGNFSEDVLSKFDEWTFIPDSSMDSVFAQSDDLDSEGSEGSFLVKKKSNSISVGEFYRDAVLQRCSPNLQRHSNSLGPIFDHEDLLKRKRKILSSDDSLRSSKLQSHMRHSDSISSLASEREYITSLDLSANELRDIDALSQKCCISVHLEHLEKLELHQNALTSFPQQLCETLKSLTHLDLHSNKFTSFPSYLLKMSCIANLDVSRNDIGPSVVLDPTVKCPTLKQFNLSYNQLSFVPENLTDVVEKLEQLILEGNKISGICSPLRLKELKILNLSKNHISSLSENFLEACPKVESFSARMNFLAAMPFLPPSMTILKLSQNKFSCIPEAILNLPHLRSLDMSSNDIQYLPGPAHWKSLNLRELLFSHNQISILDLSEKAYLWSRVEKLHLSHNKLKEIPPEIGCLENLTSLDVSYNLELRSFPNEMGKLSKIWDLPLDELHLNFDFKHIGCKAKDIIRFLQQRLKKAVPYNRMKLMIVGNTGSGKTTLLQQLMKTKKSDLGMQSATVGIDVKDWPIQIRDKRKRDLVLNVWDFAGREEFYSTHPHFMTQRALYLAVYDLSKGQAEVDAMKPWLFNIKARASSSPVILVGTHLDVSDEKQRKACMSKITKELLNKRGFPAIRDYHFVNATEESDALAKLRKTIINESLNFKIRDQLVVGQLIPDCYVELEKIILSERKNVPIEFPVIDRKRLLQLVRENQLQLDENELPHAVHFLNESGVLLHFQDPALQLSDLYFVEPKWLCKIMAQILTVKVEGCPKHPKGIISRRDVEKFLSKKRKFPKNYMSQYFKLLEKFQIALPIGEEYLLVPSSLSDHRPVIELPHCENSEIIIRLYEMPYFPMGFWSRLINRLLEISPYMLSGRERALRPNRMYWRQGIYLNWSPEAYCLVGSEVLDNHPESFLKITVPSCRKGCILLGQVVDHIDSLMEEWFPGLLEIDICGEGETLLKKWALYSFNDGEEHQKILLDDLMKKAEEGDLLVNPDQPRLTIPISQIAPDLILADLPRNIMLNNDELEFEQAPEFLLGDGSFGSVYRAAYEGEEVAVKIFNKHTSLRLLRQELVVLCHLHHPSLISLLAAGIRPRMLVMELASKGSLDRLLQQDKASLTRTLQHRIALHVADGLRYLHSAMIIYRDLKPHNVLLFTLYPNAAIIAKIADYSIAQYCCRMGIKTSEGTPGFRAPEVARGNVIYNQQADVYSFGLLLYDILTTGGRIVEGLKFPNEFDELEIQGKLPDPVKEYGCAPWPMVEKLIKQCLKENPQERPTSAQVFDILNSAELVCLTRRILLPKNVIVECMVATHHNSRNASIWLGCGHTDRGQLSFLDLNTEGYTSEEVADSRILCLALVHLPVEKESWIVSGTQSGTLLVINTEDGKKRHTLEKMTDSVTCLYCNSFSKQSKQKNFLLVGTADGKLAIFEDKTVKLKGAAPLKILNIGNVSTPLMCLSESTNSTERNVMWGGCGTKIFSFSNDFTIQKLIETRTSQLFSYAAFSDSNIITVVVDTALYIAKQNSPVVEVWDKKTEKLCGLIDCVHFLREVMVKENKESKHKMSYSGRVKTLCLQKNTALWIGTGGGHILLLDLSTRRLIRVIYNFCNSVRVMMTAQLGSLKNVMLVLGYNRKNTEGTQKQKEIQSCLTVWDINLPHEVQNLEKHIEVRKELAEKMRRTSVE
# Experimental: The Biochemical LRRK2 TR-FRET activity assay was performed according to the manufacture recommended assay protocol (Life Technologies). […] After incubation at room temperature for 1 hour, the kinase reactions were stopped by addition of 10 µL of 20 mM EDTA and 4 nM Tb-anti-pERM (pLRRKtide) antibody in TR-FRET dilution buffer (Life Technologies). After a 30 minute incubation at room temperature, TR-FRET measurements were obtained on a BMG PHERAstar plate reader using LanthaScreen® filters and settings. A 16 point, 2-fold dilution series of each compound was tested in triplicate at each concentration and assays were also performed in triplicate.
# LRRK2 G2019S [3] = biological target: T1, LRRK2 G2019S; test: TR-FRET cellular assay for LRRK2 Ser935 phosphorylation, SH-SY5Y cells, BacMam LRRK2-GFP G2019S (incl. Tocriscreen Mini library screen and follow-up); type: cell-based; parameters: This high-throughput assay utilizes cells expressing full-length human LRRK2 with a C-terminal GFP tag (LRRK2-GFP); host or cells: SH-SY5Y cells transduced with BacMam; settings: for Cellular TR-FRET Assay Max % Inhibition / IC50: dose-response follow-up; for Cellular TR-FRET Assay Max % Inhibition: 90 min; for IC50: three independent experiments, read-out: Cellular TR-FRET Assay IC50 +/-SD
# Experimental: U-2 OS cells are maintained in growth medium (McCoy’s 5A supplemented with 10% dialyzed FBS (dFBS), 10 mM HEPES, 0.1 mM NEAA, 1 mM Sodium Pyruvate, and 100 U/mL Penicillin/100 µg/mL Streptomycin). HEK293T cells are maintained in DMEM with 10% dFBS, 10 mM HEPES, 0.1 mM NEAA and 100 U/mL Penicillin/100 µg/mL Streptomycin. SH-SY5Y cells are maintained in DMEM/F-12 medium supplemented with 10% dFBS and 100 U/mL Penicillin/100 µg/mL Streptomycin. […] GIBCO® human neural stem cells (hNSCs) were propagated as an adherent culture in StemPro® NSC SFM according to the manufacturer’s recommended protocol (Life Technologies). For BacMam transduction of U-2 OS and HEK293T, cells were harvested, mixed with various amounts of BacMam LRRK2-GFP reagent (v/v) and plated onto 6-well plates. […] Cells were assayed in 384-well format (∼20,000 cells/well) 48 hours post-transduction as above.
# Transduced cells in the 384-well assay plate were incubated with indicated inhibitors (5X, 5 µL/well) for 60 to 90 minutes. During this time, 6 X lysis buffer (Life Technologies) was supplemented with 30 nM Tb-labeled anti-LRRK2 pSer935 antibody and both protease and phosphatase inhibitor cocktails (Sigma). The complete 6 X lysis buffer was added to each well (5 µL/well) and the plates were incubated at room temperature in the dark for 2 hours. […] A sigmoidal dose-response equation with varying slope was used to fit the data and generate IC50 values. Z′-factor values were calculated as: Z′-factor = 1 - [(3 × stdevno virus +3 × stdevmaxvirus)/(avgmaxvirus – avgno-virus)]. The IC50 values reported in Table 1 are the averaged numbers from three independent experiments.
# 40 nL of 10 mM Tocris library compounds in DMSO were dispensed into each well of the assay plate by the ECHO system. Equal volumes of DMSO were dispensed into the control wells. Cells were incubated with compounds for 90 to 120 min prior to cell lysis and detection as described above. The percent inhibition is calculated as: [(average emission ratios of DMSO control wells – average emission ratios of compound wells)/(average emission ratios of DMSO control wells – average emission ratios of LRRK2-IN-1 treated wells)] * 100. For the dose-response follow-up studies, fresh compound DMSO stock solutions were prepared from powder. […] Z′-factor value was calculated as: Z′-factor = 1 - [(3 × stdevLRRK2-IN-1+3 × stdevDMSO)/(avgDMSO – avgLRRK2-IN-1)]. The IC50 values reported in Table 2 are the averaged numbers from three independent experiments for both cellular and biochemical TR-FRET assays and one representative result of two independent experiments for the cytotoxicity assay.
# [4] = test system: SH-SY5Y cells expressing LRRK2-GFP G2019S; test: Cytotoxicity assay (resazurin-based cell viability); settings: read-out: Cytotoxicity Assay IC50; same conditions as TR-FRET follow-up; one representative of two experiments
# GFP-LRRK2 G2019S = biological target: T2, GFP-LRRK2 G2019S (Homo sapiens, UniProt Q5S007, G2019S); test: Immunoprecipitation/Western analysis of LRRK2 phosphorylation at Ser910, Ser935, Ser955, Ser973 in HEK293 T-REx GFP-LRRK2 G2019S cells; type: cell-based; settings: for effect on phosphorylation of Ser910, Ser935, Ser955 and Ser973 (IP-Western): 20 µM, 90 min, HEK293 GFP-LRRK2 G2019S, Figure 6
# T2 construct: expressed in transfected cells
# T2 sequence (Q5S007 whole entry G2019S): as above
# Experimental: (§1) Immunoblot analysis: BacMam LRRK2-GFP transduced U-2 OS or SH-SY5Y cells (10^7 cells) were left untreated or treated with 3 µM LRRK2-IN-I for 90 min. For lysate preparation, the cells were washed once with ice-cold PBS and lysed by addition of ice-cold lysis buffer (20 mM Tris-HCl, pH 7.4, 1% NP-40, 5 mM EDTA, 5 mM NaF, 150 mM NaCl, and 1∶100 of protease and phosphatase inhibitor cocktails). The lysate was cleared of debris by centrifugation. Equal amount of total protein was loaded onto each lane for SDS-PAGE (3–8% Tris Acetate). The proteins were transferred onto nitrocellulose membrane using the iBLOT® dry blotting system (Life Technologies) according to manufacturer’s protocol. The membranes were blocked and incubated with a primary antibody against LRRK2 (Cell Signaling Technologies), followed by incubation with alkaline phosphatase-conjugated secondary antibody (WesternBreeze® chromogenic Kit, Life Technologies). The blot was developed by using the chromogenic BCIP/NBT substrate (WesternBreeze® chromogenic Kit, Life Technologies). […] Two days post induction, cells were treated for 90 minutes in the presence of 20 µM of compound or DMSO vehicle control. Cells were rapidly lysed in ice cold lysis buffer 50 mM Tris/HCl, pH 7.5, 1 mM EGTA, 1 mM EDTA, […] 1 mM sodium orthovanadate, 10 mM sodium beta-glycerolphosphate, 50 mM NaF, 5 mM sodium pyrophosphate, 0.27 M sucrose, 1 mM benzamidine and 2 mM phenylmethanesulphonylfluoride (PMSF) and one tablet each complete protease inhibitor and PhosSTOP phosphatase inhibitor (Roche) and was supplemented with 1% (v/v) Triton X-100. GFP-LRRK2 was immunoprecipitated with GFP nanotrap beads (ChromoTek). Immunecomplexes were washed twice with lysis buffer supplemented with 300 mM NaCl and once with Buffer A (50 mM Tris/HCl, pH 7.5, 50 mM NaCl, 0.1 mM EGTA and 0.1% (v/v) 2-mercaptoethanol, and 0.27 M sucrose).
# LRRK2 A2016T/G2019S = biological target: T3, LRRK2 A2016T/G2019S (Homo sapiens, UniProt Q5S007, A2016T/G2019S); test: Immunoprecipitation/Western analysis of LRRK2 phosphorylation in T-REx HEK293 cells expressing inhibitor desensitizing mutant; type: cell-based; settings: for effect of desensitizing mutation A2016T/G2019S on compound-induced dephosphorylation (IP-Western): 20 µM, Figure 6 IRM
# T3 construct: expressed in transfected cells
# T3 sequence (Q5S007 whole entry A2016T/G2019S): as the sequence (Q5S007 whole entry G2019S) above, with A2016T counted along it
# Experimental: as §1
# [5] = Tocriscreen Mini library screen, 20 µM, SH-SY5Y G2019S, relative to LRRK2-IN-1 control
Structure (SMILES),IC50 [1] [µM],IC50 (LRRK2 G2019S [2]) [µM],%Inhibition Initial screen (LRRK2 G2019S [3]; [5]) [%],Cellular TR-FRET Assay Max % Inhibition (LRRK2 G2019S [3]; SH-SY5Y G2019S) [%],IC50 (LRRK2 G2019S [3]; SH-SY5Y G2019S) [µM],"dephosphorylation of Ser935 in library screen (LRRK2 G2019S [3]; Tocriscreen library, 20 µM, SH-SY5Y G2019S)",effect on LRRK2 activity in vitro (LRRK2 G2019S [2]),%Inhibition Initial screen (LRRK2 G2019S [3]; 20 µM),IC50 [4] [µM],"effect on phosphorylation of Ser910, Ser935, Ser955 and Ser973 (IP-Western) (GFP-LRRK2 G2019S)",effect of desensitizing mutation A2016T/G2019S on compound-induced dephosphorylation (IP-Western) (LRRK2 A2016T/G2019S),"LRRK2 phosphorylation remaining, % of untreated G2019S (GFP-LRRK2 G2019S; 293 cells, LRRK2 G2019S) [%]","LRRK2 phosphorylation remaining, % of untreated G2019S (LRRK2 A2016T/G2019S; 293 cells, LRRK2 G2019S/A2016T) [%]","%Inhibition Initial screen (LRRK2 G2019S [3]; Tocriscreen Mini library screen, 20 µM, SH-SY5Y G2019S, relative to LRRK2-IN-1 control, listed as JTC801, 20 µM) [%]"
O=C1C(Cl)=C(NCCN2CCOCC2)C(=O)c2ncccc21 [NSC 663284],2,0.48,59.1,45,5.8,–,–,–,–,–,–,–,–,–
Cn1cc(C2=C(c3cn(CCCSC(=N)N)c4ccccc34)C(=O)NC2=O)c2ccccc21 [Ro31-8220],–,–,–,–,–,did not observe in vivo dephosphorylation of Ser935,–,–,–,–,–,–,–,–
O=C(O)/C=C\C(=O)O.O=C1/C(=C/c2ccccc2)C[C@@]2(O)[C@H]3Cc4ccc(O)c5c4[C@@]2(CCN3CC2CC2)[C@H]1O5 [BNTX maleate],–,> 100,–,88,4,–,did not repress LRRK2 activity in vitro,70% and 69.7%,> 20,moderately reduced phosphorylation of all four residues,–,–,–,–
C[C@@H](N)[C@H]1CC[C@H](C(=O)Nc2ccncc2)CC1 [Y-27632],> 20,–,67.3,69,–,–,–,–,–,–,–,–,–,–
O=C1C(SCCO)=C(SCCO)C(=O)c2ccccc21 [NSC 95397],–,15,76.1,80,1.3,–,–,–,7.8,moderately reduced phosphorylation of all four residues,–,–,–,–
O=C(c1ccc(Nc2nccc(-c3cc4ccccc4s3)n2)cc1)N1CCC(N2CCCC2)CC1 [IKK 16],> 20,0.05,81.7,82,1.3,–,–,–,–,"inhibited phosphorylation of Ser910, Ser935, Ser955 and Ser973",rescued phosphorylation,–,–,–
CC(C)(C)c1ccc(S(=O)(=O)/C=C/C#N)cc1 [Bay 11-7085],> 20,> 100,97.5,100,5.3,–,did not repress LRRK2 activity in vitro,–,–,moderately reduced phosphorylation of all four residues,did not appear to be changed,50,50,–
CCc1ccc(OCc2ccccc2C(=O)Nc2ccc3nc(C)cc(N)c3c2)cc1 [JTC 801],10,> 100,90.1,84,9.6,–,did not repress LRRK2 activity in vitro,–,–,moderately reduced phosphorylation of all four residues,–,–,–,90
